Measured values reported in patent US20170119742A1, “MEDICAMENT FOR PREVENTING AND/OR TREATING STRESS DISEASES” (ONO PHARMACEUTICAL CO., LTD., priority 2014, published 2017).

Tests used:
[1] = test system: CCK-4 induced stress model; assay: Antianxiety effect (2): freezing time in CCK-4 induced stress model; assay type: in vivo; settings: rat, 1 and 3 mg/kg oral, 2 h before CCK-4 3 mg/kg s.c., Steel test
Protocol: Male LEW/CrlCrlj rats (Charles River Laboratories Japan, Inc., at the time of evaluation: 6 weeks old) were used. In accordance with Rupprecht et al. method (Science, Vol. 325, p. 490-493, 2009), cholecystokinin tetrapeptide (CCK-4) (3 mg/kg) was administered subcutaneously to the rat to induce freezing behavior which was used as an indicator of anxiety. The vehicle (0.5 w/v % methylcellulose 400 cP solution) or the compound of the present invention (1 or 3 mg/kg) was orally administered to the rat. Two hours after the administration, CCK-4 (3 mg/kg) was subcutaneously administered. Two minutes after the administration of CCK-4, the front paws of the rat were placed on a wooden block of height 7 cm. […] Instead of CCK-4, the normal group was administered 1% dimethyl formamide which is the vehicle of CCK-4. Cut-off time was set to 120 seconds. This trial was carried out a total five times at about 2 minute intervals, and the sum of the freezing time was calculated.

brain TSPO [2] = target: T1, brain TSPO (Homo sapiens, UniProt P30536); assay: Brain occupancy using PET in humans (2), different analytical method, Bmax fixed to 1; assay type: in vivo; settings: [11C] PBR28, Emax model with Bmax fixed to 1, mean plasma concentration, SAS, read-out: Ki, blood concentration which can be achieved 50% Bmax (converted)
T1 construct: from tissue; host or cells: living human brain (PET, healthy adults)
Protocol: The data in Biological example 8 were analyzed in a different analytical method. Brain occupancy, relative to the binding potential (BP) before administration, was calculated by calculating the BP of each interest area from the brain radioactivity concentration time change of [^11C] PBR28, nonspecific binding amount and arterial blood plasma radioactivity which was corrected in a non-metabolic rate (n=3 to 4 in each group). Further, the average TSPO occupancy of all interest areas was determined from the Lassen plot that obtained by the horizontal axis of the distribution volume before administration (Vt baseline) and the vertical axis of the value obtained by subtracting the distribution volume after administration from the distribution volume before the administration (Vt baseline−Vt onmed) for each interest area. […] As parameters in this model, Bmax (a maximum number of binding) and Ki (ng/mL) (a blood concentration which can be achieved 50% Bmax) were used. Bmax was fixed to 1 in this analysis, and SAS Version 9.2 (SAS Institute) was used as an analysis software. Parameters and formula of Emax model were shown in the following.
TSPO Occupancy (%)=Bmax×Cave/(Ki+Cave)×100
Cave=Mean plasma concentration (ng/mL)

brain TSPO [3] = assay: Ex vivo brain TSPO occupancy in monkeys, [3H] PBR28; settings: rhesus monkey, once on day 4, 2 h after final dose
Protocol: The vehicle (0.5 w/v % methylcellulose 400 cP solution) or the compound of the present invention (0.4 or 1 mg/kg) was orally administered twice daily for 3 days, once on day 4 to male rhesus monkeys (Shin Nippon Biomedical Laboratories, Ltd., at the time of use: 4 to 6 kg). After 2 hours of the final administration, in the same manner as Biological example 1, brain TSPO occupancy of the compound of the present invention relative to the specific binding of the vehicle control group was measured by measuring the specific binding amount of [3H] PBR28 on brain (anterior cingulate cortex, caudate nucleus, amygdala, hippocampus and occipital lobe) homogenates (n=3 in vehicle control group, n=5 in each the compound of the present invention treated group). As a result, the average TSPO occupancy of brain 5 sites was 37.9 and 56.6% in 0.4 and 1 mg/kg group of the compound of the present invention. The average plasma concentration of the compound of the present invention was 23.9 and 154 ng/mL in 0.4 and 1 mg/kg group.

[4] = test system: female diarrhea-type IBS patients; assay: PSS (Perceived Stress Scale) in the clinical trial of Biological example 10; assay type: in vivo, human; settings: 60 mg treatment
Protocol: In the clinical trial of Biological example 10, the therapeutic effect of the compound of the present invention 60 mg treatment on depression and anxiety-related diseases were evaluated using PSS (Perceived Stress Scale) (refer to Journal of Health and Social Behavior, 24, 386-396, 1983), HAM-A (Hamilton Anxiety Scale) (refer to The British journal of medical psychology, 32, 50-55, 1959) and HAM-D (Hamilton Depression scale) (refer to Journal of Neurology, Neurosurgery and Psychiatry, 23, 56-62, 1960) as rating scales.

T1 sequence (P30536 whole entry): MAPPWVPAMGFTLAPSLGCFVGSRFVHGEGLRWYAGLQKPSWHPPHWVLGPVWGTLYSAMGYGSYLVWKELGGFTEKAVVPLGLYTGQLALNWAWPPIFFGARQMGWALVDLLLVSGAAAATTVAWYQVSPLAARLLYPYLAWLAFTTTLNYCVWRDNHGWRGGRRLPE

Compound: COc1cc(Cl)ccc1[C@H]1c2[nH]c3cccc(F)c3c2C2(CC2)CN1C(C)=O [the compound of the present invention, (1S)-2-acetyl-1-(4-chloro-2-methoxyphenyl)-5-fluoro-1,2,3,9-tetrahydrospiro[β-carboline-4,1′-cyclopropane]]
- freezing time vs. vehicle control group [1]: shortened this extended freezing time significantly
- Ki (brain TSPO [2]): 34.1 nM
- average TSPO occupancy of brain 5 sites (brain TSPO [3]; 0.4 mg/kg oral twice daily 3 days): 37.9%
- average TSPO occupancy of brain 5 sites (brain TSPO [3]; 1 mg/kg oral twice daily 3 days): 56.6%
- PSS score, 4th week ([4]; Patient A, baseline 35): 19
- PSS score, Amount of change from baseline ([4]; Patient A, baseline 35, 4th week): −16
- PSS score, 4th week ([4]; Patient B, baseline 23): 13
- PSS score, Amount of change from baseline ([4]; Patient B, baseline 23, 4th week): −10
- PSS score, 4th week ([4]; Patient C, baseline 18): 6
- PSS score, Amount of change from baseline ([4]; Patient C, baseline 18, 4th week): −12
